Experimental data: the NIST ThermoML archive (doi:10.1021/je050399c)

Details: Fluid (supercritical or subcritical phases), Vibrating wire viscometry

N#N [nitrogen]
Details	viscosity [mPa·s]
348.15 K, 25007 kPa	0.02543
348.15 K, 26007 kPa	0.02571
348.15 K, 27005 kPa	0.02598
348.15 K, 27995 kPa	0.02628
348.15 K, 29000 kPa	0.02655
348.15 K, 30021 kPa	0.02687
348.15 K, 31015 kPa	0.02717
348.15 K, 32013 kPa	0.02747
348.15 K, 33000 kPa	0.02776
348.15 K, 34013 kPa	0.02808
348.15 K, 34919 kPa	0.02833
373.15 K, 100.3 kPa	0.02102
373.15 K, 200.1 kPa	0.02106
373.15 K, 301 kPa	0.02108
373.15 K, 400.2 kPa	0.02109
373.15 K, 600.7 kPa	0.0211
373.15 K, 800.6 kPa	0.02112
373.15 K, 1000.5 kPa	0.02114
373.15 K, 1501.2 kPa	0.0212
373.15 K, 2002.1 kPa	0.02125
373.15 K, 2501.4 kPa	0.02131
373.15 K, 3003.5 kPa	0.02137
373.15 K, 3503.3 kPa	0.02144
373.15 K, 4010 kPa	0.0215
373.15 K, 4501.6 kPa	0.02157
373.15 K, 5007.4 kPa	0.02164
373.15 K, 5504.7 kPa	0.02172
373.15 K, 6000.6 kPa	0.0218
373.15 K, 6507.4 kPa	0.02188
373.15 K, 7006.9 kPa	0.02194
373.15 K, 7500.7 kPa	0.02203
373.15 K, 8002.7 kPa	0.02211
373.15 K, 8504.3 kPa	0.0222
373.15 K, 9002.1 kPa	0.02228
373.15 K, 9499.1 kPa	0.02238
373.15 K, 10010 kPa	0.02247
373.15 K, 11006 kPa	0.02267
373.15 K, 12000 kPa	0.02284
373.15 K, 13002 kPa	0.02307
373.15 K, 14010 kPa	0.02327
373.15 K, 15013 kPa	0.02348
373.15 K, 16013 kPa	0.0237
373.15 K, 17018 kPa	0.02392
373.15 K, 18001 kPa	0.02414
373.15 K, 19005 kPa	0.0244
373.15 K, 19977 kPa	0.02462
373.15 K, 21015 kPa	0.02487
373.15 K, 22011 kPa	0.0251
373.15 K, 23004 kPa	0.02536
373.15 K, 24005 kPa	0.02559
373.15 K, 25012 kPa	0.02584
373.15 K, 26006 kPa	0.0261
373.15 K, 27007 kPa	0.02635
373.15 K, 28017 kPa	0.02662
373.15 K, 29005 kPa	0.02688
373.15 K, 30003 kPa	0.02714
373.15 K, 31001 kPa	0.02741
373.15 K, 32010 kPa	0.02765
373.15 K, 33011 kPa	0.02792
373.15 K, 34006 kPa	0.02821
373.15 K, 34834 kPa	0.02844
398.15 K, 100.1 kPa	0.02203
398.15 K, 200.9 kPa	0.02207
398.15 K, 300.8 kPa	0.02209
398.15 K, 400.5 kPa	0.0221
398.15 K, 600.3 kPa	0.02212
398.15 K, 800.5 kPa	0.02213
398.15 K, 1001 kPa	0.02215
398.15 K, 1501.8 kPa	0.0222
398.15 K, 2001.3 kPa	0.02225
398.15 K, 2495.8 kPa	0.02231
398.15 K, 3000.7 kPa	0.02236
398.15 K, 3501.8 kPa	0.02242
398.15 K, 4002.8 kPa	0.02247
398.15 K, 4503.1 kPa	0.02254
398.15 K, 5003.7 kPa	0.0226
398.15 K, 5502.6 kPa	0.02266
398.15 K, 6004.9 kPa	0.02273
398.15 K, 6501.8 kPa	0.0228
398.15 K, 7005.3 kPa	0.02287
398.15 K, 7507.1 kPa	0.02294
398.15 K, 8007.6 kPa	0.02302
398.15 K, 8501 kPa	0.02311
398.15 K, 9010.3 kPa	0.02317
398.15 K, 9506.9 kPa	0.02324
398.15 K, 10005 kPa	0.02334
398.15 K, 11003 kPa	0.0235
398.15 K, 11989 kPa	0.02369
398.15 K, 13002 kPa	0.02386
398.15 K, 13997 kPa	0.02405
398.15 K, 15013 kPa	0.02423
398.15 K, 16005 kPa	0.02443
398.15 K, 17010 kPa	0.02463
398.15 K, 18010 kPa	0.02482
398.15 K, 19003 kPa	0.02503
398.15 K, 20019 kPa	0.02525
398.15 K, 21009 kPa	0.02546
398.15 K, 22011 kPa	0.02568
398.15 K, 23034 kPa	0.0259
398.15 K, 23993 kPa	0.0261
398.15 K, 25001 kPa	0.02634
398.15 K, 25977 kPa	0.02657
398.15 K, 27031 kPa	0.02679
398.15 K, 28028 kPa	0.02703
398.15 K, 29028 kPa	0.02728
398.15 K, 29911 kPa	0.02747
398.15 K, 31023 kPa	0.02773
398.15 K, 32013 kPa	0.02796
398.15 K, 33034 kPa	0.02822
398.15 K, 34043 kPa	0.02845
398.15 K, 35040 kPa	0.02872
423.15 K, 100.1 kPa	0.02302
423.15 K, 200.1 kPa	0.02305
423.15 K, 300.4 kPa	0.02307
423.15 K, 400.1 kPa	0.02309
423.15 K, 600.2 kPa	0.0231
423.15 K, 800.3 kPa	0.02312
423.15 K, 1001.1 kPa	0.02313
423.15 K, 1502.5 kPa	0.02318
423.15 K, 1997.8 kPa	0.02322
423.15 K, 2498 kPa	0.02327
423.15 K, 3002.3 kPa	0.02332
423.15 K, 3505.8 kPa	0.02337
423.15 K, 4004 kPa	0.02342
423.15 K, 4501.2 kPa	0.02348
423.15 K, 5002.7 kPa	0.02353
423.15 K, 5502.8 kPa	0.02358
423.15 K, 6002.2 kPa	0.02365
423.15 K, 6502.3 kPa	0.02372
423.15 K, 7003 kPa	0.02377
423.15 K, 7497.9 kPa	0.02384
423.15 K, 8004.2 kPa	0.02391
423.15 K, 8503 kPa	0.02398
423.15 K, 9004.2 kPa	0.02405
423.15 K, 9504.3 kPa	0.02412
423.15 K, 10006 kPa	0.02418
423.15 K, 11004 kPa	0.02434
423.15 K, 11994 kPa	0.02451
423.15 K, 13002 kPa	0.02466
423.15 K, 14011 kPa	0.02483
423.15 K, 15002 kPa	0.025
423.15 K, 16009 kPa	0.02517
423.15 K, 17009 kPa	0.02535
423.15 K, 17999 kPa	0.02554
423.15 K, 19008 kPa	0.02573
423.15 K, 20008 kPa	0.02591
423.15 K, 20987 kPa	0.02609
423.15 K, 22009 kPa	0.0263
423.15 K, 23014 kPa	0.02651
423.15 K, 24019 kPa	0.02669
423.15 K, 25024 kPa	0.02691
423.15 K, 26017 kPa	0.02711
423.15 K, 27035 kPa	0.02732
423.15 K, 28010 kPa	0.02753
423.15 K, 29015 kPa	0.02774
423.15 K, 30011 kPa	0.02794
423.15 K, 31001 kPa	0.02815
423.15 K, 31988 kPa	0.02837
423.15 K, 32989 kPa	0.02859
423.15 K, 34020 kPa	0.02882
423.15 K, 35050 kPa	0.02903
